The test system of one assay is MDA-MB-453. Put plainly: 3D spheroid assay, MDA-MB-453. In kind it is cell-based. To be noted: Homo sapiens; MDA-MB-453 spheroids, 96 hours; read-out: Cancer cell growth inhibitory activity (IC50). Here is the method:
(§1) A 3D spheroid assay was performed as a method for measuring the growth of cancer cells under three-dimensional (3D) culture conditions. Briefly, the 5×10^3 triple-negative breast cancer cells in each well of a 96-well flat plate were three-dimensionally cultured for three days by using MammoCult™ Human Medium Kit (Stemcell Technologies, #05620) and the formed cancer cell spheroids were treated with compound 4 at different concentrations (o, 0.2, 0.5, 1, 2, 5, 10, 20 PM) for 96 hours. The cancer cell growth inhibitory effect of the compound was quantified according to the manufacturer's instructions by using CellTiter-Glo® 3D Cell Viability Assay Kit (Promega, G9681).

The target in assay [1] is T1, FAK (Homo sapiens, UniProt Q05397). Put plainly: FAK [pY397] ELISA in BT-549 cells. To be noted: cell line BT-549; read-out: FAK inhibitory activity (IC50). In kind it is cell-based. On the set-up: endogenous in cells; host or cells: MDA-MB-231. (An ELISA detects its analyte on a solid surface through an enzyme-linked reagent.)
The next assay deals with T2, ALK (Homo sapiens, UniProt Q9UM73).
T2 construct: purchased Eurofins (contract screening service)
Put plainly: Eurofins kinase screening and profiling, ALK. In kind it is biochemical.

Assay [2] deals with T3, Pyk2 (Homo sapiens, UniProt Q14289).
T3 construct: purchased Promega V4083
Put plainly: Eurofins kinase screening and profiling, Pyk2. The format is biochemical.

Assay [3] deals with MDA-MB-231 cells. Put plainly: 3D invasion assay. In kind it is cell-based, human. To be noted: MDA-MB-231 spheroids, 1, 5 μM, 72 hours, FIGS. 2 and 3. Here is the method: A cell invasion assay was performed and quantified according to a 3D invasion assay. Briefly, MDA-MB-231 cells were cultured in a 96-well round plate (5×10^3/well) for three days to form cancer cell spheroids, then fixed in a mixture of semi-solid Matrigel and type I collagen, and then treated with compound 4 at different concentrations (1, 5 μM). A degree of infiltration was analyzed by using a microscope (see FIG. 2) and an imaging software ImageJ in 72 hours later, and an obtained area value was quantified based on a following equation (Equation 1) and shown in a graph (see FIG. 3). Relative invasion=(total area of compound treated group−spheroid area of compound treated group)/(total area of control−spheroid area of control) [Equation 1]

Assay [4] concerns the target T1, FAK. Put plainly: FAK [pY397] ELISA in Hs578T cells. The format is cell-based. On the set-up: endogenous in cells; host or cells: MDA-MB-231. To be noted: cell line Hs578T; read-out: FAK inhibitory activity (IC50).
Assay [5] deals with T1, FAK. Put plainly: ADP-Glo Kinase Assay, FAK. The format is biochemical. More on the design: purchased Promega V1971. To be noted: ADP-Glo Kinase Assay Kit. Here is the method: (§2) Briefly, a kinase test was performed and quantified according to the manufacturer's instructions after treating the adamantane derivative compound of the present invention by using the ADP-Glo™ Kinase Assay Kit (FAK, Promega, V1971; Pyk2, Promega, V4083; InsR, Promega, V9401) containing each kinase of Promega.
Background: In ADP-Glo the light output rises with the ADP produced.

For assay [6], the target named is T1, FAK. Put plainly: FAK [pY397] ELISA in MDA-MB-231 cells. More on the design: endogenous in cells; host or cells: MDA-MB-231. In kind it is cell-based. Particulars: MDA-MB-231, treated for one hour, Table 2; read-out: FAK inhibitory activity (IC50). As to the method: (§3) Briefly, an enzyme-linked immunosorbent assay test was performed according to the manufacturer's instructions by using the FAK (Phospho) [pY397] Human ELISA Kit (Thermo Fisher Scientific, KH00441) after dispensing 1×10^6 MDA-MB-231 cells into each well of a 6-well plate, inducing cell stabilization for 24 hours, and treating each compound at different concentrations (o, 1, 5, 10, 50, 100, 500, 1000 nM) for one hour.

In another assay the test system is Hs578T. Put plainly: 3D spheroid assay, Hs578T. To be noted: Homo sapiens, Hs-578T; Hs578T spheroids, 96 hours; read-out: Cancer cell growth inhibitory activity (IC50). The format is cell-based. As to the method: as §1
Assay [7] concerns the target T1, FAK. Put plainly: Eurofins kinase screening and profiling, FAK. In kind it is biochemical. More on the design: purchased Promega V1971.
For assay [8], the target named is T3, Pyk2. Put plainly: ADP-Glo Kinase Assay, Pyk2. In kind it is biochemical. To be noted: ADP-Glo Kinase Assay Kit. As to the method:
as §2

Assay [9] deals with T1, FAK. Put plainly: FAK [pY397] ELISA in HCC70 cells. The format is cell-based. On the set-up: endogenous in cells; host or cells: MDA-MB-231. Particulars: cell line HCC70; read-out: FAK inhibitory activity (IC50). Here is the method: as §3
For assay [10], the target named is T1, FAK. Put plainly: FAK [pY397] ELISA in MDA-MB-453 cells. In kind it is cell-based. More on the design: endogenous in cells; host or cells: MDA-MB-231. Particulars: cell line MDA-MB-453; read-out: FAK inhibitory activity (IC50).
For another assay, the target named is T4, Met (Homo sapiens, UniProt P08581).
T4 construct: purchased Eurofins (contract screening service)
Put plainly: Eurofins kinase screening and profiling, Met. The format is biochemical.

For assay [11], the system named is MDA-MB-231 cells. Put plainly: Triple-negative breast cancer xenograft mouse model. Particulars: MDA-MB-231 xenograft nude mice. The format is in vivo. Here is the method:
In one week after acclimatization of five-week-old male nude mice, 1×10^6 MDA-MB-231 cells were subcutaneously inoculated into the mice and observed until a tumor volume reached about 100 mm^3 after 14 days. In order to confirm a tumor growth inhibitory effect of derived candidate materials in the triple-negative breast cancer xenograft mouse model, eight mice for each group were divided into a control group and three experimental groups at different concentrations (4-20 mg/kg, 4-40 mg/kg and 4-80 mg/kg), and each compound was treated once daily. A tumor volume of the mice was measured three times a week on every other day, and the mice were sacrificed on day 29 after cell inoculation. FIG. 4 is a graph showing the tumor volume calculated based on the following formula (Equation 2) with a starting date of drug treatment as day 1. Tumor volume (mm^3)=[(tumor short diameter^2×tumor long diameter)/2] [Equation 2] […] [Equation 3]

The target of assay [12] is T1, FAK. Put plainly: FAK [pY397] ELISA in BT-20 cells. The format is cell-based. To be noted: cell line BT-20; read-out: FAK inhibitory activity (IC50). More on the design: endogenous in cells; host or cells: MDA-MB-231.
For a further assay, the target named is T5, InsR (Homo sapiens, UniProt P06213).
T5 construct: purchased Promega V9401
Put plainly: ADP-Glo Kinase Assay, InsR. Particulars: ADP-Glo Kinase Assay Kit. The format is biochemical. As to the method:
as §2

[13] abbreviates: at 1 μM, read-out: % inhibition rate (at 1 μM).

A value given as a limit tells only on which side of the number the result lay.

T3 sequence (Q14289 whole entry): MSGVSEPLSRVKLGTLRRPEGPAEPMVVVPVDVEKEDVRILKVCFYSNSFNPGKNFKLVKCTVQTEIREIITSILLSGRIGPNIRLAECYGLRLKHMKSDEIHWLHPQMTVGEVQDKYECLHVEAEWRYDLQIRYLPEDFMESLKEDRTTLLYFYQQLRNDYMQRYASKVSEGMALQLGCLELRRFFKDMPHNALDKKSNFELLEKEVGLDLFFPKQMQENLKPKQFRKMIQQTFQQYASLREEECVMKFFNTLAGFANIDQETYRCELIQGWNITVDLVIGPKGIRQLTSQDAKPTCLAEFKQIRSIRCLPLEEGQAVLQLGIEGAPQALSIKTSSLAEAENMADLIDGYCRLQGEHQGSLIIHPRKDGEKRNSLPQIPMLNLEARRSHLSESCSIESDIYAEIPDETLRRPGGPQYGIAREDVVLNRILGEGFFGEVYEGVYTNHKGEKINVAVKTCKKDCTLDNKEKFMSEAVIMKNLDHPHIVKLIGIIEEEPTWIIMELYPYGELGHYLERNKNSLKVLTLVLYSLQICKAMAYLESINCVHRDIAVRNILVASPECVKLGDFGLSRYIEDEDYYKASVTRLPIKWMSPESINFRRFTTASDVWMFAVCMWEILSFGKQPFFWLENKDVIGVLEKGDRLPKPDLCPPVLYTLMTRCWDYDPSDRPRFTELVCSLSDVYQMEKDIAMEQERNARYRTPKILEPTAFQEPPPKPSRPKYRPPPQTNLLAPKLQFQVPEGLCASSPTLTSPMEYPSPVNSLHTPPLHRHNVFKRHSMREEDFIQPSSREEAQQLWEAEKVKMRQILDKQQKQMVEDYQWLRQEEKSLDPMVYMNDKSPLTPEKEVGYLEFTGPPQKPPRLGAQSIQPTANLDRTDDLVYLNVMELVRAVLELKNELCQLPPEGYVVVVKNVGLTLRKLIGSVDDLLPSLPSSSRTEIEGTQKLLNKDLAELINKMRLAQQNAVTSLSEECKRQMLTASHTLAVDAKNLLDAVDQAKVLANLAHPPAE
T1 sequence (Q05397 whole entry): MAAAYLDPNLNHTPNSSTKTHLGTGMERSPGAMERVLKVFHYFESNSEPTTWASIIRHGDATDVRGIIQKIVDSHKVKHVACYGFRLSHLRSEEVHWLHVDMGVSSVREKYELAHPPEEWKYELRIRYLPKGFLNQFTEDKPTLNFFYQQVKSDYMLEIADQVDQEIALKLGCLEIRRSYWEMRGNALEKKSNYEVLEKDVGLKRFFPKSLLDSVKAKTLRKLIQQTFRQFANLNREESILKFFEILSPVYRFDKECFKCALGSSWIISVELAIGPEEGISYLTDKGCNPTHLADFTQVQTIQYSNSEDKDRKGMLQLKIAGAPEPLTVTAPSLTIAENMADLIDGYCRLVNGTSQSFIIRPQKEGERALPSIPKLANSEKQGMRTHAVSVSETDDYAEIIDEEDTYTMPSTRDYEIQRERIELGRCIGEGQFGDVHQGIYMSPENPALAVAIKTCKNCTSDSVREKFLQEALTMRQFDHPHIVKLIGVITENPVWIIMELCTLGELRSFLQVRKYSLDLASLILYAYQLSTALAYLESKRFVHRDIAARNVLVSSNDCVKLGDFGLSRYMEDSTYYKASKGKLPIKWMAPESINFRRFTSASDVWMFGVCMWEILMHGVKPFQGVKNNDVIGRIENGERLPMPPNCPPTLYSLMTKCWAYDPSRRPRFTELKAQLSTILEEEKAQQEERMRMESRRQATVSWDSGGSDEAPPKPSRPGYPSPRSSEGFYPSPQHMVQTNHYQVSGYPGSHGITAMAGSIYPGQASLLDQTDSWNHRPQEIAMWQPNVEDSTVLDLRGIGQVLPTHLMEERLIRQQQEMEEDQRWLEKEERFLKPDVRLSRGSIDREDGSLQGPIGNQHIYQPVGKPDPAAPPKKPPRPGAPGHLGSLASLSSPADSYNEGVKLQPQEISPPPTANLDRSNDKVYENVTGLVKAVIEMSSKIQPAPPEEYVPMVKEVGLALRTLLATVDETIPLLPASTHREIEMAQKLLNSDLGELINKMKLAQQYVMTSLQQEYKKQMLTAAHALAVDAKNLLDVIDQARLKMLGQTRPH
T4 sequence (P08581 25-1390): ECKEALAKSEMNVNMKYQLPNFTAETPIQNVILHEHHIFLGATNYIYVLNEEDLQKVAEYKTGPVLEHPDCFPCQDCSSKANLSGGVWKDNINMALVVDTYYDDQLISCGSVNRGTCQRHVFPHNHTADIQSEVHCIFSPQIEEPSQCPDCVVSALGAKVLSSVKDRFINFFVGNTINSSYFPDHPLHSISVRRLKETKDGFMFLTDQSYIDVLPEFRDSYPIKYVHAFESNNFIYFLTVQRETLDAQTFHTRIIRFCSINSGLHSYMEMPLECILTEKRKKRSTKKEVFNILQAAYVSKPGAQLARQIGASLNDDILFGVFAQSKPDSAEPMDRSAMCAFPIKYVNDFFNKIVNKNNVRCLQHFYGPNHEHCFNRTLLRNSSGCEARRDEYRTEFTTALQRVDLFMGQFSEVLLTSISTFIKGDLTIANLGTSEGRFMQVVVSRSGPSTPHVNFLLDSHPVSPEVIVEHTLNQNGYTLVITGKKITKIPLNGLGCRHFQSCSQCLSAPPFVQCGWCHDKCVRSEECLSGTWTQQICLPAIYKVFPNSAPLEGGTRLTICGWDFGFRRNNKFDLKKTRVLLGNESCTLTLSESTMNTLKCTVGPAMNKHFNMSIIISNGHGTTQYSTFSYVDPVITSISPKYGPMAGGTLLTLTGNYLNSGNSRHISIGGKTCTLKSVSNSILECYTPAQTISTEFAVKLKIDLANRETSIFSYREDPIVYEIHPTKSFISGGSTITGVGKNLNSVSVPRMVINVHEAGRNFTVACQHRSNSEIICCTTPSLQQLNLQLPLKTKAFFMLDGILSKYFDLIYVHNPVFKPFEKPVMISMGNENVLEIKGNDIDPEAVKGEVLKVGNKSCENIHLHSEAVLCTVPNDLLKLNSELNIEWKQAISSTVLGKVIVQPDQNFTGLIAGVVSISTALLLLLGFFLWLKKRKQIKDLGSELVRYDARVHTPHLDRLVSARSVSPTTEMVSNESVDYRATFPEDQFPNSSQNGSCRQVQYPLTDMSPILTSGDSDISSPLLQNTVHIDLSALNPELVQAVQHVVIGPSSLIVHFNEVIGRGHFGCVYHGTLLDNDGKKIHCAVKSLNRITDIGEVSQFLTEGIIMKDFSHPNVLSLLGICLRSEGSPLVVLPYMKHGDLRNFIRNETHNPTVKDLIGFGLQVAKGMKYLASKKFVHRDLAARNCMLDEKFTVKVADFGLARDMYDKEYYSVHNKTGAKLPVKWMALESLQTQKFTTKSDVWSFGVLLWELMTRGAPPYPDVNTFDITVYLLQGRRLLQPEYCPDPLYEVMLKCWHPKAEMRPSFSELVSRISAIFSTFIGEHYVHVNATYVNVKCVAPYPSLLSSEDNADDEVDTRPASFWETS
T2 sequence (Q9UM73 19-1620): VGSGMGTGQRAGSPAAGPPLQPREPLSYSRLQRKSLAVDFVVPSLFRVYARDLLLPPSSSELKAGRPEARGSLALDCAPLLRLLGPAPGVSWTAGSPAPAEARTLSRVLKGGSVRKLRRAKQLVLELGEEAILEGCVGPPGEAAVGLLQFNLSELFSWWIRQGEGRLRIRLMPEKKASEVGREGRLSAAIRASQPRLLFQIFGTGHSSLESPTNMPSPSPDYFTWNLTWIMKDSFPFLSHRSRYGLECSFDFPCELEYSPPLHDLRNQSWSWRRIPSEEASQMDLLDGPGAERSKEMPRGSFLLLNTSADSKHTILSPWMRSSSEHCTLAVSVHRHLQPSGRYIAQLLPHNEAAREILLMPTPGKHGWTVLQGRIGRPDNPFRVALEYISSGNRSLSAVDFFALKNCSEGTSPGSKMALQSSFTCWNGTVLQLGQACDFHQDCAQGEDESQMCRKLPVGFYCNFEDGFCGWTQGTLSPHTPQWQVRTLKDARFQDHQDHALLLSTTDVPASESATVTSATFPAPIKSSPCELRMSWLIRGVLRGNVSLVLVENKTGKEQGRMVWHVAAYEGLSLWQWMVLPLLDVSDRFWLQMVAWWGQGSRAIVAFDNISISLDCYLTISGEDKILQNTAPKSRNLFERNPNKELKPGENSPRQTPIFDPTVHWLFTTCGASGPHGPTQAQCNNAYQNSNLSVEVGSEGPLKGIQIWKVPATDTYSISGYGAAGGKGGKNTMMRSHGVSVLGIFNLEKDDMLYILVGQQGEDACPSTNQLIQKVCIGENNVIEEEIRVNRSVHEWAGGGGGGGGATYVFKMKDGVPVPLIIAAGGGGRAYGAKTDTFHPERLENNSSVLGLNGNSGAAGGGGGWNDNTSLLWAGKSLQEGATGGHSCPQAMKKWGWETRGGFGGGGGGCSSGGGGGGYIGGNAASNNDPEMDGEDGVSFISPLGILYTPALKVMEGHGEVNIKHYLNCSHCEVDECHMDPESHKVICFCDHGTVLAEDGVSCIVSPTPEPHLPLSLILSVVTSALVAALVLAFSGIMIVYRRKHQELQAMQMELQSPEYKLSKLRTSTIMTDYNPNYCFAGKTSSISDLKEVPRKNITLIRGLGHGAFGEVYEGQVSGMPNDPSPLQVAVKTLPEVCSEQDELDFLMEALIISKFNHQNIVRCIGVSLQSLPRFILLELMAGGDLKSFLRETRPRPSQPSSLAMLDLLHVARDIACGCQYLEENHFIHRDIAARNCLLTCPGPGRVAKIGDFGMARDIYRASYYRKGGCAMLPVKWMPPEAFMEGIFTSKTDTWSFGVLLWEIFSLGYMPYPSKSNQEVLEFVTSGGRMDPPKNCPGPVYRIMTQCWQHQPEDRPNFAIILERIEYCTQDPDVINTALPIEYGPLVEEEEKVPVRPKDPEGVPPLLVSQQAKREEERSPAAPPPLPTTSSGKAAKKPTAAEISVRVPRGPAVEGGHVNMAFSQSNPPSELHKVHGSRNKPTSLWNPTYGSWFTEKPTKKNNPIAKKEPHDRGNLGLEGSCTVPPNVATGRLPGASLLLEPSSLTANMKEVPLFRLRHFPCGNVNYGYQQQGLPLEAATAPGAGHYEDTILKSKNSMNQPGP

Turning to `CNC(=O)c1cccc(C)c1Nc1nc(Nc2ccc(N3CCN([C@H]4C5CC6CC4C[C@](O)(C6)C5)CC3)cc2OC)ncc1C(F)(F)F` [Compound 4, 2-((2-((4-(4-((trans)-5-hydroxyadamantan-2-yl)piperazin-1-yl)-2-methoxyphenyl)amino)-5-(trifluoromethyl)pyrimidin-4-yl)amino)-N,3-dimethylbenzamide], the IC50 worked out at 1040 nM with MDA-MB-453; 49 nM at FAK [1]; 802 nM against ALK (Eurofins); 301 nM at Pyk2 [2] (Pyk2, Eurofins); 20 nM on FAK [4]; 46.2 nM at FAK [5]. Besides, the 50% inhibitory concentration (IC50) at FAK [6] is 34 nM; in the assay with Hs578T, greater than 10000 nM; at FAK [7] (Eurofins), 78 nM; on Pyk2 [8], 151 nM; at FAK [9] it was 59 nM; on FAK [10], 20 nM. Besides, the values for the 50% inhibitory concentration (IC50) on Met (Eurofins), on FAK [12] and against InsR were 542 nM, 63 nM and 5670 nM, respectively. The inhibition at 1 µM on ALK (setting [13]) came to 72%; on Pyk2 [2] (Pyk2, at 1 μM, read-out: % inhibition rate (at 1 μM)), 96%; on FAK [7] (setting [13]), 97%; on Met (setting [13]), 79%. Further, the invasion inhibitory activity result in the assay with MDA-MB-231 cells [3] was “excellent invasion inhibitory activity”. Besides, the “% TGI” value in the assay on MDA-MB-231 cells [11] (20 mg/kg once daily) came to 72.11%; with MDA-MB-231 cells [11] (40 mg/kg once daily) it was 74.03%; in the assay with MDA-MB-231 cells [11] (80 mg/kg once daily), 81.28%.

What is called IC50 is the concentration needed to halve the response being measured. A word on the inhibition: it is how much of the control response was suppressed.

These data come from US12590070B2, “Adamantane derivatives as inhibitors of focal adhesion kinase” (SAMJIN PHARMACEUTICAL CO., LTD., priority 2019, dated 2026).
